This note sets out measurements from patent US20200038479A1, “WOUND HEALING AGENT HAVING ANTIMICROBIAL ACTIVITY AND WOUND HEALING ACCELERATING ACTIVITY” (MARUHA NICHIRO CORPORATION, priority 2016, published 2020).

Assay [1] has as its system Staphylococcus aureus. The assay can be described thus: Antimicrobial activity test (JIS L 1902:2015 / ISO 20743) on standard cloth. To be noted: cultured 37° C. for 18 to 24 hours. In kind it is cell-based. The source says:
The antimicrobial activity of the protamine component can be evaluated based on an antimicrobial activity value described in “JIS L 1902:2015 Textiles—Determination of antibacterial activity and efficacy of textile products” (ISO 20743), and when a target material has an antimicrobial activity value of 2.0 or more, it can be determined to have the antimicrobial activity.
A standard cloth was cut into an appropriate size with a mass of 0.40 g±0.05 g. Sterile water (a control sample) and each of the test sample solutions (protamine hydrochloride: manufactured by Maruha Nichiro Corporation, protamine sulfate: manufactured by Maruha Nichiro Corporation, silver sulfate: manufactured by Wako Pure Chemical Industries Ltd.) were prepared and filtered, separately.
A Staphylococcus aureus suspension was inoculated by 0.2 mL each in separate several portions on each test piece. Immediately after the inoculation, 20 mL of a saline for washing out was added to some vials for washing out Staphylococcus aureus cells, and then a viable cell count was measured. The rest of the vials without washing-out was cultured at 37° C.±2° C. for 18 to 24 hours. After the cultivation, 20 mL of a saline for washing out was added to each vial for washing out Staphylococcus aureus cells, and then a viable cell count was measured. In accordance with the formula (1), an antimicrobial activity value was calculated, and a sample having an antibacterial activity value of 2.0 or more was determined as having the antimicrobial activity.
A=(log Ct−log C0)−(log Tt−log T0) Formula (1)
A: antibacterial activity value log Ct: arithmetic average common logarithm of viable cell count in a control sample obtained after cultivation for 18 to 24 hours log C0: arithmetic average common logarithm of viable cell count in a control sample obtained immediately after inoculation log Tt: arithmetic average common logarithm of viable cell count in a test sample obtained after cultivation for 18 to 24 hours log T0: arithmetic average common logarithm of viable cell count in a test sample obtained immediately after inoculation

In assay [2] the test system is full-thickness skin incision wound. The assay can be described thus: Healing test, full-thickness skin incision wound. To be noted: 1.25% by mass on substrate, changed daily, day 1 to 4 of observation, compared with control group and silver sulfate group. In kind it is in vivo, rat. As to the method:
A substrate (Jintan Medicare sterile pad T, manufactured by Morishita Jintan Co., Ltd.) was prepared, and each of filtered test solutions (protamine hydrochloride, protamine sulfate and silver sulfate) was homogeneously applied to each substrate to obtain a solid content of the active ingredient of 1.25% by mass. In a flank region on either side of an eight-week-old BrlHan: WIST@Jcl (GALAS) rat (four rats used in each test group), a full-thickness skin incision wound with a size of 2.5 cm×2.5 cm was created.
The substrate and the dressing were changed once every day, the incision wound was photographed with a digital camera at the time of the change, and then, an area of the wound was obtained by using image analysis software (Image J, National Institutes of Health, USA). Assuming that the area of the wound on the day of creating the wound (day 0 of observation) was 100%, an area ratio (%) of the wound on each observation date was obtained.

Assay [3] has as its system Staphylococcus aureus. The assay can be described thus: Examination of sterilization treatment: antimicrobial activity test after EOG or γ-ray sterilization. Format: cell-based. To be noted: 1.25% by mass. As to the method:
A protamine hydrochloride powder and a protamine sulfate powder were respectively enclosed in sterilization bags (roll bag for IDS, manufactured by Hogy Medical Co., Ltd.). For a control group (not treated), the sterilization treatment was not performed, and the rest was subjected to the EOG sterilization (EOG concentration: 20%, sterilization time: 4 hours, temperature: 55° C.) and the γ-ray sterilization (30 kGy). The standard cloth was cut into an appropriate size with a mass of 0.40 g±0.05 g. Each of the test powders (protamine hydrochloride and protamine sulfate) was dissolved in sterile water, separately, and then the resultant was filtered. […] A Staphylococcus aureus suspension was inoculated by 0.2 mL each in separate several portions on each test piece. Immediately after the inoculation, 20 mL of a saline for washing out was added to some vials for washing out Staphylococcus aureus cells, and then a viable cell count was measured. The rest of the vials without washing-out was cultured at 37° C.±2° C. for 18 to 24 hours. After the cultivation, 20 mL of a saline for washing out was added to each vial for washing out Staphylococcus aureus cells, and then a viable cell count was measured.

[4] abbreviates: 0.125% by mass on standard cloth.
Where [5] appears, read: 1.25% by mass on standard cloth.
[6] abbreviates: EOG Sterilization (20%, 4 hours, 55° C.).

“Also recorded” adds a separate entry of the source. Some results are limits rather than exact numbers.

`O=S(=O)([O-])[O-].[Ag+].[Ag+]` [Silver Sulfate, silver sulfate, reference compound]: the “Antibacterial Activity Value” with Staphylococcus aureus [1] (setting [4]) and in the assay on Staphylococcus aureus [1] (setting [5]) was not below 2.0 each time. For the same compound, the “wound healing accelerating effect (area ratio of the wound)” value in assay [2] was “the wound healing accelerating effect was found in protamine hydrochloride and protamine sulfate alone”.
As to protamine hydrochloride, the “Antibacterial Activity Value” with Staphylococcus aureus [1] (setting [4]), in the assay with Staphylococcus aureus [1] (setting [5]), in the assay with Staphylococcus aureus [3] (setting [6]), with Staphylococcus aureus [3] (Not Treated) and with Staphylococcus aureus [3] (γ-ray Sterilization (30 kGy)) was not below 2.0 throughout. Besides, the “wound healing accelerating effect (area ratio of the wound)” value in assay [2] (hydrochloride) was “exhibit a wound healing accelerating effect; also recorded: an effect of accelerating wound healing was observed”.
As for protamine sulfate, the “Antibacterial Activity Value” in the assay on Staphylococcus aureus [1] (setting [4]), with Staphylococcus aureus [1] (setting [5]), in the assay with Staphylococcus aureus [3] (setting [6]), in the assay with Staphylococcus aureus [3] (Not Treated) and in the assay on Staphylococcus aureus [3] (γ-ray Sterilization (30 kGy)) was not below 2.0 in each case. In assay [2], the “wound healing accelerating effect (area ratio of the wound)” value is “exhibit a wound healing accelerating effect; also recorded: an effect of accelerating wound healing was observed”.
